Holding throughout (format): biochemical
Test [1] addresses T1, DNA topoisomerase I (Human Top I) (Homo sapiens, UniProt P11387).
T1 construct: gene TOP1
T1 sequence (P11387 2-765): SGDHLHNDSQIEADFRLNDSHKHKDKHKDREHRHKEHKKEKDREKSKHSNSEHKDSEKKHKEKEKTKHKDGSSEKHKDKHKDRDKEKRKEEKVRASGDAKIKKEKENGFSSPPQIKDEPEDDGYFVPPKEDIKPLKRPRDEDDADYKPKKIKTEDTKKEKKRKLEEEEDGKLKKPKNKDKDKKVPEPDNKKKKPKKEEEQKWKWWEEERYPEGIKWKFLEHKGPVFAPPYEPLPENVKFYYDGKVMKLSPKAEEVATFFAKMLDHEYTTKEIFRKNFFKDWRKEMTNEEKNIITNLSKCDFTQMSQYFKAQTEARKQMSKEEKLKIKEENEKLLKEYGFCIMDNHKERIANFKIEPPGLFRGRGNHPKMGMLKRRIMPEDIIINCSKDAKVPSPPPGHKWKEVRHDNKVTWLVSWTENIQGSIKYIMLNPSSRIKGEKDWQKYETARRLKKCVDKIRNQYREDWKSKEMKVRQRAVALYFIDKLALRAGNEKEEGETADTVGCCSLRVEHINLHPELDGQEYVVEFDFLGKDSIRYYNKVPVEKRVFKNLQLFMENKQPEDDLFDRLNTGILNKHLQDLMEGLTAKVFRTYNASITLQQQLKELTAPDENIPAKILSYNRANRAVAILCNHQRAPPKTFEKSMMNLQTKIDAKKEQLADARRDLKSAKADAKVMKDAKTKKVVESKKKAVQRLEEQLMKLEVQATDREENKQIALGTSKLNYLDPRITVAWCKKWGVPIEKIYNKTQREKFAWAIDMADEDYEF
The test can be described thus: pBR322 supercoiled DNA relaxation assay, agarose gel ([…]).

Test [2] addresses α-amylase. Nature of the test: colorimetric starch/DNS enzyme assay.
In test [3] the target is α-glucosidase. The test can be described thus: colorimetric pNPG enzyme assay.

Converted amounts (≈) assume the structure as drawn.

The IC50 is the concentration needed to halve the response being measured. A higher IC50 goes with weaker potency in that assay.

With `CCCC(O)c1coc(=O)c(C)c1OC` (stereo not drawn) [C-HMMP, 5-(1-hydroxybutyl)-4-methoxy-3-methyl-2H-pyran-2-one], in test [1], the “pBR322 supercoiled DNA relaxation assay, agarose gel (50, 150, 250 μg/ml)” value is on record as ~ 250 μg/ml. In addition, the IC50 in test [2] was 118.6 µg/mL (≈ 559 µM); in test [3], 144.7 µg/mL (≈ 682 µM).

The values above are taken from paper PMC10333465, “Multi-Function of a New Bioactive Secondary Metabolite Derived from Endophytic Fungus Colletotrichum acutatum of Angelica sinensis” (Journal of Microbiology and Biotechnology, 2022).
